According to patent US7119105B2, “Methods for treating neurodegenerative disorders using aspartyl protease inhibitors” (The Regents of the University of California, priority 1997, dated 2006):

Experiments:
Format in all cases: cell-based, rat
cathepsin D isoforms = experiment: Cathepsin D isoforms in hippocampal slice cultures, Western blot; settings: ZPAD alone
Method: (§1) Organotypic hippocampal cultures were prepared using the technique of Stoppini, et al. (J. Neurosci. Meth., 37:173–182 (1991)). Briefly, hippocampi were harvested from brains of 9–11 days old Sprague-Dawley rat pups under sterile condition. Horizontal sections vertical to the long axis of hippocampus were cut at 400 μm and collected in a cutting medium consisting of MEM (with Earle's salts, Gibco), 25 mM HEPES, 10 mM Tris Base, 10 mM Glucose, and 3 mM MgCl2 (pH 7.2). Slices were positioned onto 30 mm cell culture inserts (Millicell-CM, Millipore, Bedford, Mass.) that were placed in 6 well culture trays with 1 ml of growth medium (MEM with Hank's salts, Gibco, 20% horse serum, 3 mM glutamine, 25 mM HEPES, 5 mM NaHCO3, 25 mM glucose, 0.5 mM ascorbate, 2 mM CaCl2, 2.5 mM MgCl2, 0.5 mg/l insulin, and penicillin, pH 7.2; 9). […]
(§2) Experiments were carried out using a yoked design in which one of the six culture trays was always used as a control and values for experimentally treated slices were expressed as percents of the same plate control. […]
(§3) Hippocampal slices were collected and sonicated in 10 mM Tris-HCl buffer (pH 7.4) containing 0.32 M sucrose, 2 mM EDTA, 2 mM EGTA, and 0.1 mM leupeptin. […] Immunoblots were scanned and the digitized images were quantitatively analyzed by densitometry using the NIH Image analysis system program.

[1] = system: phosphorylated tau fragment; experiment: Phosphorylated tau fragments in entorhinohippocampal slice cultures (immunoblot); settings: six days; ZPAD 20 μM, CEL5-172 10 μM, EA-1 1 μM; vs control
Method: Briefly, the caudal pole of the cerebral hemisphere containing the entorhinal cortex and hippocampus were harvested from brains of 6–7 days old Sprague-Dawley rat pups under sterile condition. 400 μm horizontal entorhinohippocampal sections cut vertical to the long axes of hippocampus were obtained using a McIlwain tissue chopper in a cutting medium consisting of MEM (with Earle's salts, Gibco), 25 mM HEPES, 10 mM Tris Base, 10 mM Glucose, and 3 mM MgCl2 (pH 7.2). Brain tissue explants were then planted onto 30 mm cell culture inserts (Illicell-CM, Millipore, Bedford, Mass.) that were placed in 6 well culture trays with 1 mL of growth medium (MEM with Hank's salts, Gibco, 20% horse serum, 3 mM glutamine, 25 mM HEPES, 5 mM NaHCO3, 25 mM glucose, 0.5 mM ascorbate, 2 mM CaCl2, 2.5 mM MgCl2, 0.5 mg/L insulin, and penicillin, pH 7.2; Bi, et al., J. Comp. Neuro., 401, 382–394 (1998). The cultures were incubated at 35° C. with a 5% CO2-enriched atmosphere and fed every other day until use.
For western blot, entorhinohippocampal explants were collected and sonicated in 10 mM Tris-HCl buffer (pH 7.4) containing 0.32 M sucrose, 2 mM EDTA, 2 mM EGTA, and 0.1 mM leupeptin. […] Immunoblots were scanned, and the digitized images were quantitatively analyzed by densitometry using the NIH Image analysis system program. […]

[2] = system: native (unphosphorylated) tau; experiment: Native tau isoforms and 29 kDa fragment in hippocampal slice cultures, tau 1 Western blot; settings: ZPAD six-day treatment, tau 1 antibody
Method: as §1, §2, §3

[3] = system: hyperphosphorylated tau fragments (tau 29); experiment: Hyperphosphorylated tau fragments (tau 29) in hippocampal slice cultures, AT8 Western blot
Method: Organotypic hippocampal cultures were prepared using the technique of Stoppini, et al. (J. Neurosci. Meth., 37:173–182 (1991)). Briefly, hippocampi were harvested from brains of 9–11 days old Sprague-Dawley rat pups under sterile condition. Horizontal sections vertical to the long axis of hippocampus were cut at 400 μm and collected in a cutting medium consisting of MEM (with Earle's salts, Gibco), 25 mM HEPES, 10 mM Tris Base, 10 mM Glucose, and 3 mM MgCl2 (pH 7.2). Slices were positioned onto 30 mm cell culture inserts (Millicell-CM, Millipore, Bedford, Mass.) that were placed in 6 well culture trays with 1 ml of growth medium (MEM with Hank's salts, Gibco, 20% horse serum, 3 mM glutamine, 25 mM HEPES, 5 mM NaHCO3, 25 mM glucose, 0.5 mM ascorbate, 2 mM CaCl2, 2.5 mM MgCl2, 0.5 mg/l insulin, and penicillin, pH 7.2; 9). The cultures were incubated at 35° C. with a 5% CO2-enriched atmosphere with medium changed every other day until use. Incubations were carried out for 14 days before the start of experiments. This period is sufficient for the slices to take on a variety of adult characteristics (Bahr, J Neurosci Res., 42:294–305 (1995); and Muller, et al., Dev. Brain Res., 71:93–100 (1993)).
Experiments were carried out using a yoked design in which one of the six culture trays was always used as a control and values for experimentally treated slices were expressed as percents of the same plate control. Hippocampal slice cultures were exposed to medium containing one of three cathepsin D inhibitors (see, below) or to ‘ZPAD’ (N-CBZ-L-phenylalanyl-L-alanine-diazomethylketone), a selective inhibitor of cathepsins B and L (Green, et al., J. Biol. Chem., 256:1923–1928 (1981); Richardson, et al., J. Cell Biol., 107:2097–2107 (1988); and Shaw, et al., Biochem. J., 186:385–390 (1980)). […]
as §3

29 kDa APP fragment = experiment: APP fragment in entorhinohippocampal slice cultures (immunoblot, anti-C APP643-695); settings: six days; ZPAD 20 μM, CEL5-172 10 μM; vs control
Method: Organotypic entorhinohippocampal cultures were prepared using the technique of Stoppini, et al., J. Neurosci. Methods, 37, 173–182 (1991). Briefly, the caudal pole of the cerebral hemisphere containing the entorhinal cortex and hippocampus were harvested from brains of 6–7 days old Sprague-Dawley rat pups under sterile condition. 400 μm horizontal entorhinohippocampal sections cut vertical to the long axes of hippocampus were obtained using a McIlwain tissue chopper in a cutting medium consisting of MEM (with Earle's salts, Gibco), 25 mM HEPES, 10 mM Tris Base, 10 mM Glucose, and 3 mM MgCl2 (pH 7.2). […]
as §3, with “For western blot, entorhinohippocampal explants” for “Hippocampal slices”, “scanned,” for “scanned”, “program. […]” for “program.”

## N-CBZ-L-phenylalanyl-L-alanine-diazomethylketone [ZPAD]
Cathepsin D isoforms
  increase in heavy chain isoform of cathepsin D: 70%
Cathepsin D isoforms; 6 days
  effect on procathepsin D: modest increases
[1]
  concentration of phosphorylated tau fragment, inhibitor by itself: increases
[2]
  increase in 29 kDa fragments: 101%
[2]; n=8
  reduction of native tau concentrations (four isoforms) from yoked controls: 19–32%
[3]; 2-6 days, CEL5 5 μM, EA-1 at concentrations tested, ZPAD 20 μM
  effect on tau 29 concentration, inhibitor by itself: increased
[3]; ZPAD 20 μM by itself, 6 days, vs yoked control, 5 experiments
  increase in the hyperphosphorylated tau fragment (mean±s.e.m.): 104±18%
[3]; earliest time point tested
  time at which ZPAD induced increases in phosphorylated tau fragment appeared: 48 h
29 kDa APP fragment
  concentration of 29 kDa APP fragment, inhibitor by itself: increases
